What is called GI50 is the concentration that inhibits growth by half. High values mean lower sensitivity of the cells, low ones greater sensitivity of the cells.

Consider one compound from article PMC4171606, “A novel copper(I) complex induces ER-stress-mediated apoptosis and sensitizes B-acute lymphoblastic leukemia cells to chemotherapeutic agents” (Oncotarget, 2014).

Structures are written as SMILES.

What all share (assay type): cell-based, human
The subject of one assay is ubiquitinated proteins. As to the kind of experiment: Western blot, Ubiquitin accumulation. As for the experimental part:
FIGURE 3 CP treatment affects Ubiquitin Proteasome System (UPS) 26S proteasome (100 μg) semipurified from (A) SEM and (B) RS4;11 cells was incubated for 60 min at 37 °C with CP at different concentrations. Chymotrypsin (CT), trypsin (T) and peptidyl glutamyl peptide hydrolyzing (PGPH) catalytic activity were measured fluorimetrically (excitation 370, nm emission 460) by following the release of free AMC from synthetic substrates N-Suc-Leu-Leu-Val-Tyr-AMC, Boc-Gln-Ala-Arg-AMC and Z-Leu-Leu-Glu-AMC, specific for CT, T and PGPH activity, respectively. (C) Cells were incubated with CP 2.5 μM for the indicated times and then western blot analyses were performed to evaluate Ubiquitin accumulation.
In normal conditions, misfolded proteins in the ER are driven to the cytoplasm, where upon ubiquitination, are degraded by the proteasome system. […] To assess if CP worked as other proteasome inhibitors, we evaluated the accumulation of ubiquitin after 1.5, 3, and 6 h of treatment.
Cells were treated with CP and, after different times, were collected, centrifuged and washed with ice cold phosphate-buffered saline (PBS). The pellet was then resuspended in lysis buffer as described. The protein concentration in the supernatant was determined using the BCA protein assay (Pierce, Italy). […]

In the next assay the test system is PHA-stimulated PBMC. As to the kind of experiment: MTT viability of healthy cells, 24 h. As for the experimental part:
(§1) CP growth inhibitory activity was measured on primary cultures derived from pediatric patients affected by B-acute lymphoblastic leukemia. […] In particular, in resting and in PHA-stimulated PBMC, and in CD19^+ cells GI50 was higher than 10 μM confirming that CP preferentially affects leukemia cells.
(§2) FIGURE 6 CP effects on B-ALL primary cultures (A) Blast cells from six B-ALL patients were incubated for 24 h with different concentrations of CP. For the sake of comparison CD19^+ cells from peripheral blood of healthy donors, and PBMC were also incubated with CP in the presence or absence of PHA. Cell viability were assayed by MTT analysis. Data are represented as mean ± S.E.M of four independent experiments. (B) Bone marrow cells from healthy donors were treated for 24 h with CP (2.5 μM and 5 μM). Cell viability was evaluated on the whole population by flow cytometry after staining the cells with Annexin-V-FITC and PI. are represented as mean ± S.E.M of 3 independent experiments. (C) Western Blot analysis of GRP78 and CHOP expression, PARP cleavage and caspase-3 activation, on protein extracts of blast cells from B-ALL patients treated with CP (2.5 μM) for 12 h.
(§3) Peripheral blood mononuclear cells (PBMC) and bone marrow cells from healthy donors were obtained by separation on Lymphoprep (Fresenius KABI, Norge AS) gradient. After extensive washing, cells were resuspended (1.0 × 10^6 cells/ml) in RPMI1640 with 10% fetal bovine serum and incubated overnight in 96-well tissue culture microtiter plate. For cytotoxicity evaluations in proliferating PBMC cultures, non-adherent cells were resuspended in growth medium, containing 2.5 μg/ml phytohematoglutinin (PHA) (Irvine Scientific). To isolate B-lymphocyte, PBMC obtained by Lymphoprep (Fresenius KABI, Norge AS) separation were labeled with anti-CD19-APC (BD Biosciences, Italy) and collected by cell sorting.

The next assay has as its system resting PBMC. Kind of assay: MTT viability of healthy cells, 24 h. The protocol: as §1, §2, §3
Assay [1] has as its system CD19+ cells from peripheral blood of healthy donors. As to the kind of experiment: MTT viability of healthy cells, 24 h. The protocol: as §1, §2, §3
In another assay the test system is SEM and RS4;11 cells. As to the kind of experiment: Annexin-V-FITC/PI flow cytometry (apoptosis). The settings on record: CP 2.5 μM, both cell lines. As for the experimental part:
FIGURE 1 CP uptake and effects on cell cycle and apoptosis induction A) RS4;11, SEM, THP1, Jurkat cell lines and healthy PBMC were incubated with 6.25, 12.5 and 25 μM of CP for 24 h. The intracellular accumulation of CP was detected by GF-AAS analysis. B) SEM and RS4;11 cells were treated with the indicated concentrations of CP for 24 h, cell cycle distribution and Sub-G1 contents were analyzed by flow cytometry after cell staining with PI. The percentages of each phase of the cell cycle (G1, S, G2/M) were calculated on living cells whereas the percentages of cells with hypodiploid DNA content peak (subG1) was referred to cell population characterized by the appearance of subG1 peak. C) SEM and RS4;11 cells were incubated with 2.5 μM CP for the indicated times and analyzed by flow cytometry after double staining with Annexin-V-FITC and PI. Data are represented as mean ± S.E.M. of three independent experiments.
To characterize the mode of cell death induced by CP, we performed a cytofluorimetric analysis using PI and Annexin-V-FITC, which stain DNA and phosphatidylserine residues, respectively. After a time course of 1.5, 3, 6, 12 and 24 h of drug treatment (2.5 μM), SEM and RS4;11 cells were labeled with the two dyes and analyzed by flow cytometry. […]

The subject of assay [2] is GRP78, CHOP, PARP, caspase-3. As to the kind of experiment: Western blot on blast cells from B-ALL patients. The settings on record: CP 2.5 μM, 12 h. As for the experimental part: as §2
Cells were treated with CP and, after different times, were collected, centrifuged and washed with ice cold phosphate-buffered saline (PBS). The pellet was then resuspended in lysis buffer as described. The protein concentration in the supernatant was determined using the BCA protein assay (Pierce, Italy). Equal amounts of protein (10 μg) were resolved using SDS-PAGE gel electrophoresis (Criterion precast Tris-HCl gel, BioRad, Italy) and transferred to PVDF Hybond-p membranes (GE Healthcare, Italy). […]

Take `F[P-](F)(F)(F)(F)F.OCP(CO)CO.OCP(CO)CO.OCP(CO)CO.OCP(CO)CO.[Cu+]` [CP, [Cu(thp)4][PF6]]: the “onset of accumulation of ubiquitinated proteins” value is no less than 3 h with ubiquitinated proteins (RS4;11, CP 2.5 μM) and no less than 1.5 h in the assay on ubiquitinated proteins (SEM, CP 2.5 μM). Moreover, the GI50 (in the assay with PHA-stimulated PBMC; in the assay with resting PBMC; in assay [1]) was greater than 10 µM throughout. Also, in the assay on SEM and RS4;11 cells, the “onset of significant levels of Annexin-V positive cells” value is no less than 6 h. Besides, the “caspase-3 activation and PARP cleavage” value in assay [2] (patient cells) is “induced caspase-3 activation and PARP cleavage”. In assay [2] (primary cultures), the “GRP-78 and CHOP expression” value was “significant increase in the expression of both these markers”.
